# Data from patent EP0026746A1, “Combinatory compositions for use in a method for enhancing the activity of antibiotics, antibiotic preparations having enhanced activity and process for their production” (CIBA-GEIGY AG, priority 1979, dated 1981).
# How the values were obtained:
# Assay in all cases: Mouse protection test, i.p. infection, survival ED50
# Assay type in all cases: in vivo
# [1] = test system: Salmonella typhimurium 273; conditions: Salmonella enterica, sc, 240 h, mice, 400 x 10^4 cfu i.p., s.c. immediately and 3 h after infection, results after 10 days
# Text: (§1) Die hohe antibiotische Wirkung des neuen Verfahrens und der neuen Präparate kann durch "in vivo"-Versuche nachgewiesen werden, die an verschiedenen Tierarten, insbesondere an Säugetieren, wie Mäusen, durchgeführt werden. Dazu infiziert man sie mit einer letalen oder sub-letalen Dosis eines pathogenen Microorganismus und gibt dann das genannte neue Präparat bzw. die einzelnen Dosen an Muramylpeptid und Antibiotikum. Die Wirkung wird als ED bestimmt, das ist diejenige Dosis bei denen […] der Tiere überleben.
# (§2) Beispiel 4: Man infiziert weisse Laboratoriums-Mäuse auf i.p. Wege mit den in der nachfolgenden Tabelle angeführten pathogenen Mikroorganismen in Salzlösung, so dass 90-100% der nicht behandelten Kontrolltiere innerhalb von 48 Stunden getötet werden. Unmittelbar, sowie 3 Stunden nach der Infektion werden Gruppen zu je 10 Mäusen mit Cefroxadin, sowohl allein (ohne MDP oder nMDP) als auch in Kombination mit N-Acetyl-muramyl-L-alanyl-D-isoglutamin (MDP) bzw. mit N-Acetyldesmethylmuramyl-L-alanyl-D-isoglutamin (nMDP) behandelt, wobei dieselben zweimal in Form wässriger Lösungen oder Suspensionen auf subkutanem Weg verabreicht wurden. Nach 4 bzw. 10 Tagen nach erfolgter Infektion wurden die überlebenden Tiere gezählt. Die meisten dieser Versuche wurden zweifach ausgeführt und die Mittelwerte ermittelt.
# [2] = test system: Salmonella typhimurium 277; conditions: Salmonella enterica, sc, 240 h, mice, 40 x 10^4 cfu i.p., s.c. immediately and 3 h after infection, results after 10 days
# Text: as §1, §2
# [3] = test system: Staphylococcus aureus 2999; conditions: Staphylococcus aureus, 2999, sc, 96 h, mice, 20 000 x 10^4 cfu i.p., s.c. immediately and 3 h after infection, survivors after 4 days
# Text: as §1
# as §2, with “10 Tagen nach erfolgter Infektion wurden die überlebenden Tiere gezählt.” left out
# Pasteurella multocida = conditions: sc, mice, 0.1 x 10^4 cfu i.p., s.c. immediately and 3 h after infection, survivors
# Text: as §1
# as §2, with “10 Tagen nach erfolgter Infektion wurden die überlebenden Tiere gezählt.” left out
# [4] = test system: Klebsiella pneumoniae 329; conditions: Klebsiella pneumoniae, 329, sc, 96 h, mice, 2 x 10^4 cfu i.p., s.c. immediately and 3 h after infection, survivors after 4 days
# Text: as §1
# as §2, with “10 Tagen nach erfolgter Infektion wurden die überlebenden Tiere gezählt.” left out
# [5] = test system: Streptococcus pyogenes 38; conditions: Streptococcus pyogenes, 38, sc, 96 h, mice, 0.6 x 10^4 cfu i.p., s.c. immediately and 3 h after infection, survivors after 4 days
# Text: as §1
# as §2, with “10 Tagen nach erfolgter Infektion wurden die überlebenden Tiere gezählt.” left out
# [6] = test system: Klebsiella pneumoniae 327; conditions: Klebsiella pneumoniae, 327, sc, mice, 60 x 10^4 cfu i.p., s.c. immediately and 3 h after infection, survivors
# Text: as §1
# as §2, with “10 Tagen nach erfolgter Infektion wurden die überlebenden Tiere gezählt.” left out
structure (smiles),measurement,setting,value
"COC1=C(C(=O)O)N2C(=O)[C@@H](NC(=O)[C@H](N)C3=CCC=CC3)[C@H]2SC1 [Cefroxadin, 7ß-[D-2-amino-2-(1,4-cyclohexadienyl)-acetamido]-3-methoxy-3-cephem-4-carbonsäure]",ED50,[1]; mit 10 mg/kg MDP,22.5 mg/kg
same,ED50,[1]; mit 10 mg/kg nMDP,14 mg/kg
same,ED50,[1]; ohne MDP oder nMDP,39 mg/kg
same,ED50,[2]; mit 10 mg/kg MDP,7.6 mg/kg
same,ED50,[2]; mit 10 mg/kg nMDP,11 mg/kg
same,ED50,[2]; ohne MDP oder nMDP,22.5 mg/kg
same,ED50,[3]; mit 10 mg/kg MDP,45 mg/kg
same,ED50,[3]; mit 10 mg/kg nMDP,35 mg/kg
same,ED50,[3]; ohne MDP oder nMDP,58 mg/kg
same,ED50,Pasteurella multocida; mit 10 mg/kg MDP,37 mg/kg
same,ED50,Pasteurella multocida; mit 10 mg/kg nMDP,70 mg/kg
same,ED50,Pasteurella multocida; ohne MDP oder nMDP,109 mg/kg
same,ED50,[4]; mit 10 mg/kg MDP,4.5 mg/kg
same,ED50,[4]; mit 10 mg/kg nMDP,< 2.5 mg/kg
same,ED50,[4]; ohne MDP oder nMDP,14.2 mg/kg
same,ED50,[5]; mit 10 mg/kg MDP,0.18 mg/kg
same,ED50,[5]; mit 10 mg/kg nMDP,0.17 mg/kg
same,ED50,[5]; ohne MDP oder nMDP,0.21 mg/kg
same,ED50,[6]; mit 10 mg/kg MDP,< 50 mg/kg
same,ED50,[6]; mit 10 mg/kg nMDP,< 50 mg/kg
same,ED50,[6]; ohne MDP oder nMDP,75 mg/kg
